From patent publication US3935309A, “Synergistic combinations of phosphonomycin and bacteriostatic agents” (Merck & Co., Inc., priority 1974, dated 1976)
Values joined by “and” are separate entries in the source; they are usually repeats but may differ in a detail not shown here. Equal values may be shown once.

Key:
Streptococcus faecalis [1] = assay: MIC by two-fold serial broth dilution, alone and in combination (Example 1); format: cell-based; details: 2nd substance novobiocin; MIC/2 instead of ≤ MIC/4
pathogenic bacteria = assay: in vitro combination tests with various pathogens (general description); format: cell-based
From the text: Other experimental results have shown that novobiocin, chlortetracycline and sulfisoxazole are potentiated when combined with phosphonomycin and tested with various strains of pathogenic bacteria.

[2] = system: test organisms of Example 1; assay: Summary of the twelve combination synergy tests (Example 1); format: cell-based
Experimental: (§1) The MIC (minimum inhibitory concentration) of phosphonomycin and each of the other antibiotics by itself was determined before the combination synergy experiment was begun, as follows: 2 ml. of a double strength solution in sterile distilled water of the highest strength to be tested (usually 1000γ) was added to a tube of double strength nutrient broth (NB) and mixed thoroughly. Two-fold serial dilutions were then made by transferring 2 ml. to the next tube (1 × NB) and so on for approximately 12 tubes. The tubes were inoculated with one drop each of a 1:50 dilution of a culture adjusted to a Lumetron 60 reading in NB + 0.2% yeast extract so as to provide a concentration of cells of approximately 25,000/ml. The tubes were then incubated at 37°C. and examined for growth at 24, 48 and 72 hours.
In the combination experiment, the MIC value obtained as described above was used as approximately the midpoint of the range to be tested for each of the two antibiotics of the combination. In a manner similar to the above, two-fold dilutions of the first substance in the combination were made except that 1.8 ml. volumes were used and a 2.2 × strength solution of both the antibiotic and the NB were made. […]

bacterial cell wall = assay: mode of action on bacteria; format: cell-based
From the text: In accordance with one embodiment of this invention, pathogenic bacteria are controlled by concomitantly contacting these pathogens with phosphonomycin and a bacteriostatic chemotherapeutic agent. The action of the phosphonomycin is to potentiate, augment or synergise the activity of the bacteriostatic agent. This potentiation of the bacteriostats is indeed unexpected since the bacteriostatic agents have an entirely different mode of action than phosphonomycin. […] Thus, phosphonomycin is indeed unique among antibiotics in that it is capable of potentiating the important bacteriostatic chemotherapeutic agents.

[3] = system: Klebsiella pneumoniae "B"; assay: Combined antibiotic therapy of experimental infection in mice (Example 5); format: in vivo, mice infected with Klebsiella pneumoniae "B"; details: 7 LD50
From the text: (§2) For example, using Escherichia coli 2017 as the infecting agent, sodium phosphonomycin was titrated alone and in the presence 5 and also in the presence of 0.5γtetracycline, while tetracycline was titrated alone and in the presence of 50γ, and also in the presence of 5γof sodium phosphonomycin. The two drugs were given by the subcutaneous route at separate sites on the ventral surface of the mouse. Such therapy was given only at the time of infection for the Escherichia coli and Pseudomonas aeruginosa tests but both at the time of infection and 6 hours later for all other tests. Infection was given intraperitoneally using broth suspensions of the test organism.

Escherichia coli 2017 = assay: Combined antibiotic therapy of Escherichia coli infection in mice (Example 5); format: in vivo, mice infected with Escherichia coli 2017
From the text: as §2

Staphylococcus aureus = assay: MIC by two-fold serial broth dilution, alone and in combination (Example 1); format: cell-based
Experimental: as §1
(§3) In the combination experiment, the MIC value obtained as described above was used as approximately the midpoint of the range to be tested for each of the two antibiotics of the combination. In a manner similar to the above, two-fold dilutions of the first substance in the combination were made except that 1.8 ml. volumes were used and a 2.2 × strength solution of both the antibiotic and the NB were made. The second antibiotic of the combination was added to duplicate rows of serial dilutions of the first substance as follows: 0.2 ml. in NB of a [formula] and a [formula] respectively, of the second substance was added to each tube in a row of serial dilutions of the first antibiotic. The final concentration that resulted enabled the determination of the effect of both MIC/4 and MIC/8 of each substance in the presence of from approximately 32 MIC to [formula] of the other. Inocula were added as in the initial single MIC experiment.

Pseudomonas aeruginosa = assay: as above; format: cell-based
Experimental: as §1, §3

Streptococcus faecalis [4] = assay: as above; format: cell-based
Experimental: as §1, §3

Proteus vulgaris = assay: as above; format: cell-based
Experimental: as §1, §3

Pseudomonas stutzeri = assay: as above; format: cell-based
Experimental: as §1, §3

Klebsiella pneumoniae = assay: as above; format: cell-based
Experimental: as §1, §3

[5] = system: Streptococcus pyogenes 3009; assay: Combined antibiotic therapy of experimental infection in mice (Example 5); format: in vivo, mice infected with Streptococcus pyogenes 3009; details: 6 LD50
From the text: as §2

[6] = system: Pseudomonas aeruginosa 3210; assay: as above; format: in vivo, mice infected with Pseudomonas aeruginosa 3210; details: 10 LD50
From the text: as §2

[7] = alone, therapy at 0 and 6 hours, phosphonomycin as sodium salt
[8] = phosphonomycin titrated, novobiocin constant 100
[9] = phosphonomycin titrated, novobiocin constant 1000
[10] = chloramphenicol repeat test, 7 LD50, phosphonomycin titrated, chloramphenicol constant 5
[11] = chloramphenicol repeat test, 7 LD50, phosphonomycin titrated, chloramphenicol constant 50
[12] = chloramphenicol test 1, 9 LD50, phosphonomycin titrated, chloramphenicol constant 3
[13] = chloramphenicol test 1, 9 LD50, phosphonomycin titrated, chloramphenicol constant 30
[14] = tetracycline repeat test, 7 LD50, phosphonomycin titrated, tetracycline constant 1
[15] = tetracycline repeat test, 7 LD50, phosphonomycin titrated, tetracycline constant 10
[16] = tetracycline test 1, 9 LD50, alone
[17] = tetracycline test 1, 9 LD50, phosphonomycin titrated, tetracycline constant 0.5
[18] = tetracycline test 1, 9 LD50, phosphonomycin titrated, tetracycline constant 5

Structure (SMILES): C[C@@H]1O[C@@H]1P(=O)(O)O [Phosphonomycin, (-) (cis-1,2-epoxypropyl)phosphonic acid]
- Phosphonomycin MIC in presence of 2nd substance (Streptococcus faecalis [1]): 24 µg/mL
- tests in which phosphonomycin potentiated the effect of chloramphenicol (pathogenic bacteria; almost 200 pathogenic bacteria, about 15,000 individual tests): 88%
- antagonism (pathogenic bacteria; between phosphonomycin and each of chloramphenicol and erythromycin): no antagonism
- antagonism (pathogenic bacteria; various tests with human pathogens): does not exhibit any antagonism
- synergism (pathogenic bacteria; with chloramphenicol, erythromycin, tetracyclines, novobiocin and sulfisoxazole, inhibition at one quarter or less of MIC of each): acts synergistically
- antagonism by the combination of antibiotics [2]: in no case was there any evidence of antagonism
- tests in which potentiating effect of phosphonomycin is observed [2]: eight of the twelve tests
- mode of action (bacterial cell wall): bactericidal in action
- spheroplasts (bacterial cell wall; certain bacterial strains exposed to the antibiotic): detection of spheroplasts
- % ED50 ([3]; alone): 100%
- s.c. ED50 [3, 7]: 2130 µg
- % ED50 [3, 8]: 52%
- s.c. ED50 [3, 8]: 1110 µg
- % ED50 [3, 9]: 14%
- s.c. ED50 [3, 9]: 298 µg
- % ED50 (Escherichia coli 2017; chloramphenicol repeat test, 7 LD50, alone): 100%
- s.c. ED50 (Escherichia coli 2017; chloramphenicol repeat test, 7 LD50, alone, single dose at 0 hour, phosphonomycin as sodium salt): 276 µg
- % ED50 (Escherichia coli 2017; chloramphenicol repeat test, 7 LD50, chloramphenicol titrated, phosphonomycin constant 5): 2%
- % ED50 (Escherichia coli 2017; chloramphenicol repeat test, 7 LD50, chloramphenicol titrated, phosphonomycin constant 50): 19%
- % ED50 (Escherichia coli 2017; [10]): 33%
- s.c. ED50 (Escherichia coli 2017; [10]): 92 µg
- % ED50 (Escherichia coli 2017; [11]): 9%
- s.c. ED50 (Escherichia coli 2017; [11]): 26 µg
- % ED50 (Escherichia coli 2017; chloramphenicol test 1, 9 LD50, alone): 100%
- s.c. ED50 (Escherichia coli 2017; chloramphenicol test 1, 9 LD50, alone, single dose at 0 hour, phosphonomycin as sodium salt): 905 µg
- % ED50 (Escherichia coli 2017; chloramphenicol test 1, 9 LD50, chloramphenicol titrated, phosphonomycin constant 10): 1%
- % ED50 (Escherichia coli 2017; chloramphenicol test 1, 9 LD50, chloramphenicol titrated, phosphonomycin constant 100): 11%
- % ED50 (Escherichia coli 2017; [12]): 100%
- s.c. ED50 (Escherichia coli 2017; [12]): 905 µg
- % ED50 (Escherichia coli 2017; [13]): 55%
- s.c. ED50 (Escherichia coli 2017; [13]): 500 µg
- % ED50 (Escherichia coli 2017; tetracycline repeat test, 7 LD50, alone): 100%
- s.c. ED50 (Escherichia coli 2017; tetracycline repeat test, 7 LD50, alone, single dose at 0 hour, phosphonomycin as sodium salt): 350 µg
- % ED50 (Escherichia coli 2017; [14]): 108%
- s.c. ED50 (Escherichia coli 2017; [14]): 380 µg
- % ED50 (Escherichia coli 2017; [15]): 111%
- s.c. ED50 (Escherichia coli 2017; [15]): 390 µg
- % ED50 (Escherichia coli 2017; tetracycline repeat test, 7 LD50, tetracycline titrated, phosphonomycin constant 0.5): 2%
- % ED50 (Escherichia coli 2017; tetracycline repeat test, 7 LD50, tetracycline titrated, phosphonomycin constant 50): 14%
- % ED50 (Escherichia coli 2017; [16]): 100%
- % ED50, Combined % (Escherichia coli 2017; [16]): 100%
- s.c. ED50 (Escherichia coli 2017; tetracycline test 1, 9 LD50, alone, single dose at 0 hour, phosphonomycin as sodium salt): 1000 µg
- % ED50 (Escherichia coli 2017; [17]): 100%
- s.c. ED50 (Escherichia coli 2017; [17]): 1000 µg
- % ED50 (Escherichia coli 2017; [18]): 43%
- s.c. ED50 (Escherichia coli 2017; [18]): 427 µg
- % ED50 (Escherichia coli 2017; tetracycline test 1, 9 LD50, tetracycline titrated, phosphonomycin constant 5): .5%
- % ED50 (Escherichia coli 2017; tetracycline test 1, 9 LD50, tetracycline titrated, phosphonomycin constant 50): 5%
- Phosphonomycin MIC in presence of ≤ MIC/4 of 2nd substance (Staphylococcus aureus; 2nd substance erythromycin): 24
- Phosphonomycin MIC in presence of ≤ MIC/4 of 2nd substance (Staphylococcus aureus; 2nd substance novobiocin): 48
- Phosphonomycin MIC in presence of ≤ MIC/4 of 2nd substance (Pseudomonas aeruginosa; 2nd substance erythromycin): 12
- Phosphonomycin MIC in presence of ≤ MIC/4 of 2nd substance (Pseudomonas aeruginosa; 2nd substance novobiocin): 93.6
- Phosphonomycin MIC in presence of ≤ MIC/4 of 2nd substance (Streptococcus faecalis [4]; 2nd substance chlortetracycline): 48
- Phosphonomycin MIC in presence of ≤ MIC/4 of 2nd substance (Streptococcus faecalis [4]; 2nd substance erythromycin): 192
- MIC (Streptococcus faecalis [4]; Enterococcus faecalis, alone, read-out: Phosphonomycin MIC): 93.6 µg/mL
- Phosphonomycin MIC (Streptococcus faecalis [4]; alone, in µg/mL): 96 and 48
- Phosphonomycin MIC in presence of 2nd substance (Proteus vulgaris; 2nd substance chlortetracycline, MIC/2 instead of ≤ MIC/4): 24 µg/mL
- Phosphonomycin MIC in presence of ≤ MIC/4 of 2nd substance (Proteus vulgaris; 2nd substance erythromycin): 96
- Phosphonomycin MIC in presence of ≤ MIC/4 of 2nd substance (Proteus vulgaris; 2nd substance novobiocin): 6.8
- Phosphonomycin MIC in presence of ≤ MIC/4 of 2nd substance (Pseudomonas stutzeri; 2nd substance novobiocin): 16
- MIC (Pseudomonas stutzeri; Stutzerimonas stutzeri, read-out: Phosphonomycin MIC): > 220 µg/mL
- Phosphonomycin MIC in presence of ≤ MIC/4 of 2nd substance (Klebsiella pneumoniae; 2nd substance novobiocin): 5.8
- MIC (Klebsiella pneumoniae; Klebsiella pneumoniae, alone, read-out: Phosphonomycin MIC): 750 µg/mL
- % ED50 ([5]; alone): 100%
- % ED50, Combined % ([5]; alone): 100%
- s.c. ED50 [5, 7]: 1400 µg
- % ED50 ([5]; tetracycline titrated, phosphonomycin constant 500): 64%
- % ED50 ([5]; tetracycline titrated, phosphonomycin constant 1000): 71%
- % ED50 ([6]; alone): 100%
- s.c. ED50 ([6]; alone, therapy at 0 hour only, phosphonomycin as sodium salt): 1420 µg
- % ED50 [6, 8]: 88%
- s.c. ED50 [6, 8]: 1250 µg
- % ED50 [6, 9]: 195%
- s.c. ED50 [6, 9]: 2760 µg
